Assay results as given in publication PMC3906536, “The cyclic AMP phosphodiesterase RegA critically regulates encystation in social and pathogenic amoebas^” (Cellular Signalling, 2014).

biological target: T1, Acas RegA (cAMP phosphodiesterase RegA) (Acanthamoeba castellanii, UniProt L7WMY9); experiment: inhibition of 3H-cAMP hydrolysis by purified RegA; format: biochemical
T1 construct: 621 aa protein from full cDNA, N-terminal hexahis-tag, expressed in E. coli
T1 sequence (L7WMY9 entry or part of it): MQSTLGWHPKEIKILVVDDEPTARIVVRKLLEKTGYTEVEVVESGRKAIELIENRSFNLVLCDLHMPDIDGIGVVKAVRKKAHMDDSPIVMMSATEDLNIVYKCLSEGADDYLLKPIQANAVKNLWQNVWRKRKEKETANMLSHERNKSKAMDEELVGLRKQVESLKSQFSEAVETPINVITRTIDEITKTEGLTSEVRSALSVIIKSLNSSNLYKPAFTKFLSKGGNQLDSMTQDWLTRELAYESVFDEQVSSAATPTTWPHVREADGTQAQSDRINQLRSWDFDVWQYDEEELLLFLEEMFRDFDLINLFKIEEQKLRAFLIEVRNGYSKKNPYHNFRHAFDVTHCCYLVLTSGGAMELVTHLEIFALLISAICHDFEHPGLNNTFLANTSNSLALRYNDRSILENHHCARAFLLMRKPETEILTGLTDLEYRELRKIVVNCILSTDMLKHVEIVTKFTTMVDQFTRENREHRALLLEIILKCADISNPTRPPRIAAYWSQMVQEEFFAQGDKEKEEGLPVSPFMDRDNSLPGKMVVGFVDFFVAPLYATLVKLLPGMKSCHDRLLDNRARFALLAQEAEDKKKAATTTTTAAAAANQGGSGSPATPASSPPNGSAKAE

Row | IC50 [µM] | Structure (SMILES)
1 | 400 | Clc1cccc(Nc2nnc(-c3ccccc3)c3ccccc23)c1 [MY-5445]
2 | 12 | OCCN(CCO)c1nc(N2CCCCC2)c2nc(N(CCO)CCO)nc(N3CCCCC3)c2n1 [dipyridamole]
3 | 30 | COc1cc2c(cc1OC)-c1c/c(=N\c3c(C)cc(C)cc3C)n(C)c(=O)n1CC2 [trequinsin]
